Measured values from patent US20250241971A1 (priority 2022, published 2025).

Key:
Ruminants = details: in feed; cited from earlier work
broiler chickens [1] = details: in vivo
il8 and ifnγ genes = details: in vivo
broiler chickens [2] = details: in vivo; remark: listed apart in the source
Poultry = details: in vivo; cited from earlier work

Compound: CC1=C[C@H]2O[C@@H]3[C@H](O)C[C@](C)([C@@]2(CO)[C@H](O)C1=O)[C@]31CO1 [DON, Deoxynivalenol]
- feed concentration up to which little sensitivity appears (Ruminants): up to 12 mg/kg of feed
- lesions in the liver (broiler chickens [1]): induces a strong increase in lesions in the liver
- macroscopic appearance of the liver (broiler chickens [1]): appears paler, slightly yellower; a hemorrhagic lesion is clearly visible
- il8 mRNA expression in jejunum (il8 and ifnγ genes): strong increase
- interferon gamma (ifnγ) mRNA expression in jejunum (il8 and ifnγ genes): strong increase
- size (height) of intestinal villi of the jejunum (broiler chickens [2]): induces a reduction in the size of the intestinal villi of the jejunum
- concentration from which first zootechnical effects are observed (Poultry): ≥ 5 mg of DON per kilogram of feed
- number of lesions on the tissue (pig jejunum explants): increases the number of lesions on the tissue
- decrease in villus length (pig jejunum explants; pig): approximately 35%
